Target: T1, NtrC D54E (Escherichia coli, UniProt P0AFB8, D54E)
T1 construct: gene glnG
Assay: biochemical
Conditions: read-out: % inhibition at 250 μM

T1 sequence (P0AFB8 whole entry D54E): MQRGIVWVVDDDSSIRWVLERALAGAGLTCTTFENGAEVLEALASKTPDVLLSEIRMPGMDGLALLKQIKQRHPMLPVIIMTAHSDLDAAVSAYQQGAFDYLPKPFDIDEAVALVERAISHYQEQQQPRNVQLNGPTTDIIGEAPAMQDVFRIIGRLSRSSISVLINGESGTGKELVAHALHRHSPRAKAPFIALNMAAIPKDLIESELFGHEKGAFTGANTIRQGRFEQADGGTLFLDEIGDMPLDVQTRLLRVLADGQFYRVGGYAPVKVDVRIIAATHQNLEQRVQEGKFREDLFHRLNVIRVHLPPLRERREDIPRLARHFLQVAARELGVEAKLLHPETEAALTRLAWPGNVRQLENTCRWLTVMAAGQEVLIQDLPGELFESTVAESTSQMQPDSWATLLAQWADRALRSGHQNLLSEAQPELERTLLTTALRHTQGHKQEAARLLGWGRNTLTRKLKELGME

Row | Compound | inhibition at 250 µM
1 | CC(C)COC(=O)CSc1n[nH]c(=O)[nH]c1=O [compound 11] | ~10%
2 | CC(C)(C)COC(=O)CSc1n[nH]c(=O)[nH]c1=O [compound 12] | ~10%
